Measured values published in patent US20090233841A1, “ANALGESIC CONJUGATES” (Regents of the University of Minnesota, priority 2005, published 2009).
“Also recorded” adds a separate entry of the source.

Columns and labels:
male ICR mice [1] = test: Physical dependence: naloxone-precipitated withdrawal jumping after chronic ICV infusion; type: in vivo, mouse; conditions: for physical dependence on chronic ICV administration: 3-day ICV infusion, naloxone-precipitated jumping; for # of Jumps (SEM), naloxone-precipitated withdrawal: average jumps in 10 minutes after naloxone 1 mg/kg sc, after 3-day ICV infusion
Experimental: (§1) Chronic administration To investigate tolerance and dependence associated with these conjugates, chronic ICV administration studies were performed. The compound of interest was administered ICV via a cannula using an osmotic minipump for 3 days, as previously described (Gomori et al., 2003; Mashiko et al., 2003). Withdrawal was measured by administering naloxone (1 mg/kg; subcutaneous (sc)) and counting the naloxone-precipitated jumps for 10 minutes. Tolerance was determined by administering challenge doses of the compound after chronic infusion for 3 days, and determining the chronic ED50 value at that time.
(§2) Chronic ICV infusion. Osmotic minipumps (model 1003D, Alzet, Durect Corporation, Cupertino, Calif.) were filled with saline or the drug to be tested. The dose of each drug was twelve times its ED50 (nmol)/hour. The minipumps were connected by a 1.6-1.8 cm length of PE-60 tubing to a 3-mm long cannula (osmotic pump connector cannula, Plastics One, Roanoke, Va.) and primed in sterile saline at 37° C. overnight.
(§3) The next day, mice were anesthetized with Avertin (2,2,2-tribromoethanol (370 mg/kg, IP)/tert amyl alcohol (0.16 mg/kg, IP)) before surgery. The scalp was shaved and an incision was made along the midline of the scalp. Hemostats were used to make a pocket under the skin between the shoulder blades. The skull was scraped clean of periosteum so that the cannula pedestal would properly adhere to the skull. A micro drill (Fine Science Tools Inc., Foster City, Calif.) was used to drill a hole approximately 1.6 mm lateral and 0.6 mm caudal to bregma. The minipump was placed between the shoulder blades, the cannula was inserted in the drilled hole into the lateral ventricle, and the cannula pedestal was affixed to the skull with cyanoacrylate glue. The animals were allowed to recover on a heating pad (Fine Science Tools, Foster City, Calif.) and were returned to their cages in the animal facility for three days.
Testing for dependence and tolerance. The development of physical dependence was assessed by quantifying withdrawal jumping observed during precipitated withdrawal (Way et al., 1969) on the fourth day after surgery. Mice were injected with naloxone (1 mg/kg, sc) and placed into Plexiglas cylinders for 10 minutes. During those 10 minutes, vertical jumps were counted as withdrawal signs.

male ICR mice [2] = test: Mouse radiant heat tail flick assay after acute ICV administration; type: in vivo; conditions: for ED50 nmol (95% C.L.), antinociceptive potency / Ligand ED50 pmol (95% C.L.), antinociceptive potency: mouse tail flick, acute ICV administration; for ED50 nmol (95% C.L.), antinociceptive potency: conjugates and coadministration; for Ligand ED50 pmol (95% C.L.), antinociceptive potency: mu control ligands
Experimental: Acute drug administration. Drugs were dissolved in sterile saline (0.9% NaCl). Animals were anesthetized with halothane and drugs were administered with a Hamilton syringe mated to a shortened (3 mm) 27-g needle in a volume of 4 μl by ICV injection into the lateral cerebral ventricle (Haley et al., 1957). The injection site was 1.6 mm lateral and 0.6 mm caudal to bregma.
Antinociceptive testing. […] Mice were tested once before injection (control time).

male ICR mice [3] = test: Tolerance: tail flick ED50 after 3-day chronic ICV infusion (osmotic minipump); type: in vivo, mouse; conditions: for tolerance on chronic ICV administration: 3-day ICV infusion; for Chronic ED50 nmol (95% C.L.): compound chronically administered ICV for 3 days, then challenge doses; for Saline ED50 nmol (95% C.L.): saline chronically administered ICV for 3 days, then challenge doses of compound; for fold increase in ED50 value after chronic ICV infusion: three-day ICV infusion
Experimental: as §1, §2, §3
To test the degree of tolerance developed, the osmotic minipump was removed and the mice were returned to their cages for four hours. The mice were then injected with the test drug into the contralateral lateral cerebral ventricle and antinociception was measured with the tail flick test as described above.

male ICR mice [4] = test: Mouse tail flick assay after IV administration; conditions: tail flick, IV
Experimental: Antinociceptive testing. Antinociception was evaluated by the radiant heat tail flick assay (D'Amour et al., 1941). Briefly, a beam of light was focused on the mouse tail and the time until the tail flicked was measured. Each animal served as its own control and was used only once. Mice were tested once before injection (control time). After injection, the mice were tested at the time of peak drug response (drug time), as determined by pilot time course studies. The light intensity was adjusted so that control times were between 1.5 and 2.5 s. A 10 second cutoff drug time was set to minimize the risk of tissue damage. Percent maximum possible effect (% MPE) was calculated as follows (Dewey et al., 1970): […]
Graded dose response curves of at least 4 doses with at least 8 mice per dose were generated from the % MPE data.
Methods Drugs were administered IV via the tail vein in a volume of 100 μl to male ICR mice. Fifteen minutes later, antinociception was measured by the tail flick assay and charcoal meal (300 μl, oral) was administered by gavage. Thirty minutes after the charcoal meal., the mice were sacrificed by halothane overdose and the distance the charcoal traveled relative to the entire length of the GI tract was compared to the distance traveled in control animals injected with saline. The conjugates tested (MDAN-16, MDAN-19, MDAN-20, and MDAN-21) had linker lengths of 19, 23, 24, and 25 Å.

SMILES	# of Jumps (SEM), naloxone-precipitated withdrawal (male ICR mice [1])	ED50 nmol (95% C.L.), antinociceptive potency (male ICR mice [2])	Chronic ED50 nmol (95% C.L.) (male ICR mice [3])	Saline ED50 nmol (95% C.L.) (male ICR mice [3])	fold increase in ED50 value after chronic ICV infusion (male ICR mice [3]) [fold]	Ligand ED50 pmol (95% C.L.), antinociceptive potency (male ICR mice [2]) [pmol]	further results
CN1CCC23c4c5ccc(O)c4OC2C(NC(=O)COCC(=O)NCCCNC(=O)COCC(=O)Nc2cccc4c6c([nH]c24)C2Oc4c(O)ccc7c4C24CCN(CC2CC2)C(C7)C4(O)C6)CCC3(O)C1C5 (stereo not drawn) [Compound 4]	0.9 (0.7)	1.49 (1.04-1.95) nmol	5.61 (4.39-6.83) nmol	1.54 (0.89-2.20) nmol	3.6	–	physical dependence on chronic ICV administration (male ICR mice [1]; listed as MDAN-17): without producing dependence; also recorded: without physical dependence; # of Jumps (SEM), naloxone-precipitated withdrawal (male ICR mice [1]; listed as MDAN-17): 0.94; tolerance on chronic ICV administration (male ICR mice [3]; listed as MDAN-17): produced tolerance; also recorded: tolerance without physical dependence developed
CN1CCC23c4c5ccc(O)c4OC2C(NC(=O)COCC(=O)NCCCCNC(=O)COCC(=O)Nc2cccc4c6c([nH]c24)C2Oc4c(O)ccc7c4C24CCN(CC2CC2)C(C7)C4(O)C6)CCC3(O)C1C5 (stereo not drawn) [Compound 5]	8.9 (3.0)	0.95 (0.68-1.23) nmol	4.75 (3.50-6.00) nmol	1.29 (0.97-1.61) nmol	3.7	–	physical dependence on chronic ICV administration (male ICR mice [1]; listed as MDAN-18): without producing dependence; also recorded: without physical dependence; # of Jumps (SEM), naloxone-precipitated withdrawal (male ICR mice [1]; listed as MDAN-18): 8.9; tolerance on chronic ICV administration (male ICR mice [3]; listed as MDAN-18): produced tolerance; also recorded: tolerance without physical dependence developed
CN1CCC23c4c5ccc(O)c4OC2C(NC(=O)COCC(=O)NCCCCCCNC(=O)COCC(=O)Nc2cccc4c6c([nH]c24)C2Oc4c(O)ccc7c4C24CCN(CC2CC2)C(C7)C4(O)C6)CCC3(O)C1C5 (stereo not drawn) [Compound 7, 7′-{2-[(6-{2-[({(5α,6α)-4,5-Epoxy-3,14-dihydroxy-17-methylmorphin-6-yl}-aminocarbonyl)-methoxy]-acetylamino}-hexylaminocarbonyl)-methoxy]-acetylamino}-naltrindole]	0.4 (0.4)	0.17 (0.15-0.19) nmol	0.17 (0.13-0.21) nmol	0.17 (0.15-0.20) nmol	–	–	physical dependence on chronic ICV administration (male ICR mice [1]; listed as MDAN-20): no tolerance or dependence was observed; also recorded: produced no tolerance or physical dependence; tolerance on chronic ICV administration (male ICR mice [3]; listed as MDAN-20): no tolerance or dependence was observed; also recorded: produced no tolerance or physical dependence
CNC(=O)COCC(=O)NCCNC(=O)COCC(=O)NC1CCC2(O)C3Cc4ccc(O)c5c4C2(CCN3C)C1O5 (stereo not drawn) [Compound 9, reference compound]	–	–	–	–	–	39.39	–
CNC(=O)COCC(=O)NCCCNC(=O)COCC(=O)NC1CCC2(O)C3Cc4ccc(O)c5c4C2(CCN3C)C1O5 (stereo not drawn) [Compound 10, reference compound]	–	–	–	–	–	39.69	–
CNC(=O)COCC(=O)NCCCCCNC(=O)COCC(=O)NC1CCC2(O)C3Cc4ccc(O)c5c4C2(CCN3C)C1O5 (stereo not drawn) [Compound 12, reference compound]	83 (13)	–	0.22 (0.19-0.26) nmol	0.04 (0.03-0.05) nmol	5.5	39.45	physical dependence on chronic ICV administration (male ICR mice [1]): produced both antinociceptive tolerance and physical dependence; # of Jumps (SEM), naloxone-precipitated withdrawal (male ICR mice [1]; listed as MA-19): 83; ED50 ICV (nmol) (male ICR mice [2]; tail flick, ICV, Table 2): 0.04 (0.03-0.05) nmol; ED50 IV (nmol) (male ICR mice [4]): 1.61 (1.29-1.92) nmol; tolerance on chronic ICV administration (male ICR mice [3]): produced both antinociceptive tolerance and physical dependence
CNC(=O)COCC(=O)NCCCCCCNC(=O)COCC(=O)N[C@H]1CC[C@@]2(O)[C@H]3Cc4ccc(O)c5c4[C@@]2(CCN3C)[C@H]1O5 [Compound 13, (5α,6α)-6-{2-[(6-{2-[(Methylaminocarbonyl)-methoxy]-acetylamino}-hexylaminocarbonyl)-methoxy]-acetylamino}-4,5-epoxy-3,14-dihydroxy-17-methylmorphinan, reference compound]	–	–	–	–	–	37.25	–
CNC(=O)COCC(=O)NCCCCCCCNC(=O)COCC(=O)NC1CCC2(O)C3Cc4ccc(O)c5c4C2(CCN3C)C1O5 (stereo not drawn) [Compound 14, reference compound]	–	–	–	–	–	43.56	–
